{
  "source": "paper PMC9636434",
  "about": "“Discovery of small molecule agonists of the Relaxin Family Peptide Receptor 2” (Communications Biology, 2022)",
  "key": {"human RXFP3": {"target": "T1, human RXFP3 (Homo sapiens, UniProt Q9NSD7)", "T1 construct": "host or cells: HEK293T (transient)", "T1 sequence (Q9NSD7 1-469)": "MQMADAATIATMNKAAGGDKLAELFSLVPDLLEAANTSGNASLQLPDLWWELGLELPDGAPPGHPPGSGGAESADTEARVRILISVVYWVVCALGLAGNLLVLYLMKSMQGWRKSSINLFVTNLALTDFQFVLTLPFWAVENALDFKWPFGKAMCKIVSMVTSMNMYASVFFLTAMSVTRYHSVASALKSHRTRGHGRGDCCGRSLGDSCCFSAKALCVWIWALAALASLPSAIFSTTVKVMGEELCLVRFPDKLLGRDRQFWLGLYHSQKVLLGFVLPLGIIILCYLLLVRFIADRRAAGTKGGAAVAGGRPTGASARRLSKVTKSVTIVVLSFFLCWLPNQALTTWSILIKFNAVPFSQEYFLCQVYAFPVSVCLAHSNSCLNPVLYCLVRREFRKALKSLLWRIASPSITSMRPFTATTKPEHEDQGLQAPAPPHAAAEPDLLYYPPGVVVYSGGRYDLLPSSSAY", "assay": "GloSensor cAMP assay in RXFP3 transiently transfected HEK293T cells", "assay_type": "cell-based", "conditions": "for RLU (cAMP, raw): RXFP3, 0.1 µM isoproterenol, replicates (1)-(4)"}, "[1]": {"assay": "Pharmacokinetic study, 3 mg/kg IV, 10 mg/kg PO and 10 mg/kg PO QD*3, plasma, liver and bone", "assay_type": "in vivo, mouse", "conditions": "for Plasma concentration: individual values (1)-(3)", "description": "The concentration of compound in plasma, liver, and long bones was detected using liquid chromatography tandem mass spectrometry (LC-MS/MS). Samples were collected after a single intraperitoneal (IP) administration at 30 mg/kg, a single intravenous (IV) administration at 3 mg/kg, a single oral (PO) administration at 10 mg/kg, and a daily PO administration for 3 consecutive days at 10 mg/kg. The compound was formulated in 75% PEG300 + 25% of 40% aq. HPBCD for IV and PO administration and in 60% Phosal + 40% PEG300 for IP administration. All tissue samples were homogenized in water at a tissue weight to water volume ratio 1:3.\nIV administration, one 10 mg/kg PO administration and three 10 mg/kg PO administrations (QD*3). a Plasma, b liver and c bone profiles in female mice. The actual concentration (ng/g) is the detected value (ng/mL) multiplied by 4. Drug vehicle is 25% aq. 40% HP-b-CD - 75% PEG300. 3 mice were used per time point. Results are expressed as the mean ± SEM."}},
  "note": "Where “and” joins values, the source holds several entries; their conditions need not be identical. Equal entries are not always repeated. Where two headings read alike, the source gives them in different places.",
  "data": [
    {"smiles": "O=C1Nc2ccc(-c3cc(C(F)(F)F)cc(C(F)(F)F)c3)cc2C(=O)N2CCN(C(=O)COc3ccc(OC(F)(F)F)cc3I)C[C@@H]12", "note": "[compound 6641]", "values": [
      {"measurement": "RLU (cAMP, raw)", "setting": "human RXFP3; Log [M] -4.52", "value": "1801.05 RLU and 1842.11 RLU and 1885.55 RLU and 1904.59 RLU"},
      {"measurement": "RLU (cAMP, raw)", "setting": "human RXFP3; Log [M] -5", "value": "1713.57 RLU and 1782 RLU and 1870.67 RLU and 1664.77 RLU"},
      {"measurement": "RLU (cAMP, raw)", "setting": "human RXFP3; Log [M] -5.52", "value": "1763.55 RLU and 1915.9 RLU and 1776.65 RLU and 1719.52 RLU"},
      {"measurement": "RLU (cAMP, raw)", "setting": "human RXFP3; Log [M] -6", "value": "2045.03 RLU and 1694.52 RLU and 1928.99 RLU and 1704.05 RLU"},
      {"measurement": "RLU (cAMP, raw)", "setting": "human RXFP3; Log [M] -6.52", "value": "1626.68 RLU and 1976 RLU and 1728.44 RLU and 1743.92 RLU"},
      {"measurement": "RLU (cAMP, raw)", "setting": "human RXFP3; Log [M] -7", "value": "2133.7 RLU and 1895.07 RLU and 2053.37 RLU and 1981.36 RLU"},
      {"measurement": "RLU (cAMP, raw)", "setting": "human RXFP3; Log [M] -7.52", "value": "1652.87 RLU and 1825.44 RLU and 1426.73 RLU and 1642.75 RLU"},
      {"measurement": "RLU (cAMP, raw)", "setting": "human RXFP3; Log [M] -8", "value": "1859.96 RLU and 1760.58 RLU and 1940.89 RLU and 1974.81 RLU"},
      {"measurement": "RLU (cAMP, raw)", "setting": "human RXFP3; Log [M] -8.52", "value": "2192.97 RLU and 1919.63 RLU"},
      {"measurement": "RLU (cAMP, raw)", "setting": "human RXFP3; Log [M] -9", "value": "1940.02 RLU and 2105.38 RLU and 1999.67 RLU and 2166.54 RLU"},
      {"measurement": "RLU (cAMP, raw)", "setting": "human RXFP3; Log [M] -9.52", "value": "2103.87 RLU and 2056.3 RLU and 1688.58 RLU"},
      {"measurement": "RLU (cAMP, raw)", "setting": "human RXFP3; Log [M] -10", "value": "1933.98 RLU and 1927.18 RLU and 2266.97 RLU and 1930.96 RLU"},
      {"measurement": "RLU (cAMP, raw)", "setting": "human RXFP3; Log [M] -10.52", "value": "1985.33 RLU and 1919.63 RLU and 2191.46 RLU and 1872.07 RLU"},
      {"measurement": "RLU (cAMP, raw)", "setting": "human RXFP3; Log [M] -11", "value": "2121.99 RLU and 2313.03 RLU and 1878.86 RLU and 1896.98 RLU"},
      {"measurement": "RLU (cAMP, raw)", "setting": "human RXFP3; Log [M] -11.52", "value": "2326.62 RLU and 1848.66 RLU and 1903.78 RLU and 1954.37 RLU"},
      {"measurement": "RLU (cAMP, raw)", "setting": "human RXFP3; Log [M] -12", "value": "1756.54 RLU and 2242.81 RLU and 2177.87 RLU and 2001.94 RLU"},
      {"measurement": "activation of RXFP3 (cAMP inhibition)", "setting": "human RXFP3; cAMP induced by 0.1 µM isoproterenol", "value": "does not activate"},
      {"measurement": "accumulation", "setting": "[1]; 10 mg/kg PO daily for 3 consecutive days", "value": "no accumulation"},
      {"measurement": "half-life", "setting": "[1]; C57BL/6J, mouse, in vivo, female mice, depending on the route of administration (3 mg/kg IV, 10 mg/kg PO)", "value": "4 to 6.5", "unit": "h"},
      {"measurement": "bioavailability", "setting": "[1]; C57BL/6J, mouse, plasma, 10 mg/kg PO, female mice", "value": "25 to 31", "unit": "%"},
      {"measurement": "maximum concentration in bone tissue", "setting": "[1]; IV administration, 3 mg/kg", "value": 1072, "unit": "ng/g"},
      {"measurement": "Plasma concentration", "setting": "[1]; IV, Time 0.083 h", "value": "2772 ng/mL and 2884 ng/mL"},
      {"measurement": "Plasma concentration", "setting": "[1]; IV, Time 0.25 h", "value": "1472 ng/mL and 1152 ng/mL"},
      {"measurement": "Plasma concentration", "setting": "[1]; IV, Time 0.5 h", "value": "786 ng/mL and 964 ng/mL"},
      {"measurement": "Plasma concentration", "setting": "[1]; IV, Time 1 h", "value": "583 ng/mL and 464 ng/mL"},
      {"measurement": "Plasma concentration", "setting": "[1]; IV, Time 3 h", "value": "259 ng/mL and 205 ng/mL"},
      {"measurement": "Plasma concentration", "setting": "[1]; IV, Time 7 h", "value": "84.8 ng/mL and 68.4 ng/mL"},
      {"measurement": "Plasma concentration", "setting": "[1]; IV, Time 24 h", "value": "4.08 ng/mL and 5.43 ng/mL"},
      {"measurement": "Plasma concentration", "setting": "[1]; IV, Time 48 h, N/A: Below detection level", "value": 0.868, "unit": "ng/mL"},
      {"measurement": "Plasma concentration", "setting": "[1]; PO (QD*3), Time 0.083 h", "value": "7.56 ng/mL and 5.2 ng/mL"},
      {"measurement": "Plasma concentration", "setting": "[1]; PO (QD*3), Time 0.25 h", "value": "57.1 ng/mL and 50.6 ng/mL"},
      {"measurement": "Plasma concentration", "setting": "[1]; PO (QD*3), Time 0.5 h", "value": "185 ng/mL and 245 ng/mL and 104 ng/mL"},
      {"measurement": "Plasma concentration", "setting": "[1]; PO (QD*3), Time 1 h", "value": "484 ng/mL and 346 ng/mL"},
      {"measurement": "Plasma concentration", "setting": "[1]; PO (QD*3), Time 3 h", "value": 344, "unit": "ng/mL"},
      {"measurement": "Plasma concentration", "setting": "[1]; PO (QD*3), Time 7 h", "value": "125 ng/mL and 179 ng/mL"},
      {"measurement": "Plasma concentration", "setting": "[1]; PO (QD*3), Time 24 h", "value": "3.9 ng/mL and 5.49 ng/mL"},
      {"measurement": "Plasma concentration", "setting": "[1]; PO (QD*3), Time 48 h, N/A: Below detection level", "value": 1, "unit": "ng/mL"},
      {"measurement": "maximum concentration in bone tissue", "setting": "[1]; PO administration, 10 mg/kg", "value": "170 to 300", "unit": "ng/g"},
      {"measurement": "Plasma concentration", "setting": "[1]; PO, Time 0.25 h", "value": "32.7 ng/mL and 59.5 ng/mL"},
      {"measurement": "Plasma concentration", "setting": "[1]; PO, Time 0.5 h", "value": "159 ng/mL and 69 ng/mL and 120 ng/mL"},
      {"measurement": "Plasma concentration", "setting": "[1]; PO, Time 1 h", "value": "406 ng/mL and 323 ng/mL"},
      {"measurement": "Plasma concentration", "setting": "[1]; PO, Time 3 h", "value": "247 ng/mL and 204 ng/mL"},
      {"measurement": "Plasma concentration", "setting": "[1]; PO, Time 7 h", "value": "141 ng/mL and 122 ng/mL"},
      {"measurement": "Plasma concentration", "setting": "[1]; PO, Time 24 h", "value": "8.08 ng/mL and 4.6 ng/mL"},
      {"measurement": "concentration at 0.5 h", "setting": "[1]; female, C57BL/6J, mouse, bone (long bones), 10 mg/kg, bone, PO, individual animals, read-out: Bone 6641 PO concentration", "value": 20.3, "unit": "ng/g"},
      {"measurement": "concentration at 0.083 h", "setting": "[1]; female, C57BL/6J, mouse, bone (long bones), iv, 3 mg/kg, bone, IV, 0.083 h, individual animals, read-out: Bone 6641 IV concentration", "value": 1180, "unit": "ng/g"},
      {"measurement": "concentration at 0.25 h", "setting": "[1]; female, C57BL/6J, mouse, bone (long bones), iv, 3 mg/kg, bone, IV, 0.25 h, individual animals, read-out: Bone 6641 IV concentration", "value": 1100, "unit": "ng/g"},
      {"measurement": "concentration at 0.5 h", "setting": "[1]; female, C57BL/6J, mouse, bone (long bones), iv, 3 mg/kg, bone, IV, individual animals, read-out: Bone 6641 IV concentration", "value": 711, "unit": "ng/g"},
      {"measurement": "concentration at 1 h", "setting": "[1]; female, C57BL/6J, mouse, bone (long bones), iv, 3 mg/kg, bone, IV, 1 h, individual animals, read-out: Bone 6641 IV concentration", "value": 632, "unit": "ng/g"},
      {"measurement": "concentration at 3 h", "setting": "[1]; female, C57BL/6J, mouse, bone (long bones), iv, 3 mg/kg, bone, IV, 3 h, individual animals, read-out: Bone 6641 IV concentration", "value": 337, "unit": "ng/g"},
      {"measurement": "concentration at 7 h", "setting": "[1]; female, C57BL/6J, mouse, bone (long bones), iv, 3 mg/kg, bone, IV, 7 h, individual animals, read-out: Bone 6641 IV concentration", "value": 87.9, "unit": "ng/g"}
    ]}
  ]
}
